Test results published in patent publication US20250320193A1, “OXOISOINDOLINYL SUBSTITUTED PIPERIDINEDIONE DERIVATIVE AND USE THEREOF” (GLUETACS THERAPEUTICS (SHANGHAI) CO., LTD., priority 2022, published 2025).

Assays:
[1] = molecular target: GSPT1 (Homo sapiens (Human), UniProt P15170+Q96SW2); assay: Western blot, substrate protein expression in hPBMC: GSPT1; assay type: cell-based; details: hPBMC, compound 500 nM, 24 hours, Western blot
Experimental: (§1) The effect of the compounds of the present disclosure on the expression of target proteins in cells was detected using conventional Western blot analysis.
(§2) Human peripheral blood mononuclear cells (hPBMCs) at a density of 1×10^6 cells/mL were thawed according to the PBMC Recovery Protocol (Milecell Biotechnologies Inc, Shanghai). […] After 24 hours of compounds treatment, cells were harvested and lysed in RIPA protein lysate containing phosphatase inhibitors on ice for 30-60 min, followed by centrifugation. The supernatant was aspirated as the extracted total cell protein. The protein concentration of the supernatant was determined using the conventional BCA (Bicinchoninic Acid) assay. The supernatant was then mixed with 4× SDS sample loading buffer, denatured at 95° C. for 5 minutes, and then subjected to SDS-PAGE electrophoresis on a polyacrylamide gel. Proteins were then transferred to a nitrocellulose (NC) membrane, blocked at room temperature for 1-2 h, and processed for antibody incubation and detection according to the manufacturer's instructions (Cell Signaling Technology).
(§3) Half-Maximal Degradation Concentration value (the drug concentration required for degrading proteins by 50%, abbreviated as DC50) reads method: comparing the grayscale values of Western blot bands from drug-treated samples (protein degrader compounds) with those from blank (DMSO-treated) controls, and identifying the drug concentration range at which the grayscale value is half that of the DMSO-treated control bands.
(§4) DC50 values can be calculated using ImageJ software to measure grayscale values of Western blot bands from drug-treated samples. The relationship curve between drug concentration and grayscale values is fitted to estimate the drug concentration corresponding to half the grayscale value.
(§5) Target protein remaining (%) refers to the percentage of target protein remaining in hPBMC cells after treatment with protein degrader compounds.
(§6) Calculation method for protein remaining (%): Use ImageJ software to measure grayscale values of Western blot bands from drug (protein degrader)-treated samples. The grayscale value of drug-treated bands is divided by that of internal control protein bands, and the resulting quotient is normalized to obtain the relative percentage of remaining target protein after protein degrader treatment.
(§7) Target protein degradation rate (%)=100%-target protein remaining (%).

[2] = molecular target: IKZF3 (Homo sapiens (Human), UniProt Q96SW2+Q9UKT9); assay: Western blot, substrate protein expression in hPBMC: IKZF3; assay type: cell-based; details: hPBMC, compound 500 nM, 24 hours, Western blot
Chain of IKZF3 (Q9UKT9 whole entry): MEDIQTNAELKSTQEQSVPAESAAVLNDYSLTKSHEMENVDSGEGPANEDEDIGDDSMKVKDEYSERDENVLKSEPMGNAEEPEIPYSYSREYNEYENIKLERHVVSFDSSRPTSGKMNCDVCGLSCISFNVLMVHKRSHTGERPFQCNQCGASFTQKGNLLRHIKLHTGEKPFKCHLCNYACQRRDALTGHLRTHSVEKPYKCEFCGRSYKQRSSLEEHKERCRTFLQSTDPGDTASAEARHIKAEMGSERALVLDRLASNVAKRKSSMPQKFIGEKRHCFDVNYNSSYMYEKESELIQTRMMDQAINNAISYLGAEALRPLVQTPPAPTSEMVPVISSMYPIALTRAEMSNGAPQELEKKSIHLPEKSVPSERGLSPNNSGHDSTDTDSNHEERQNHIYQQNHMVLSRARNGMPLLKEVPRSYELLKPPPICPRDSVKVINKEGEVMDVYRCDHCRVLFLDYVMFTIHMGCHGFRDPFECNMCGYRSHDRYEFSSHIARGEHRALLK
Chain of IKZF3 (Q96SW2 whole entry): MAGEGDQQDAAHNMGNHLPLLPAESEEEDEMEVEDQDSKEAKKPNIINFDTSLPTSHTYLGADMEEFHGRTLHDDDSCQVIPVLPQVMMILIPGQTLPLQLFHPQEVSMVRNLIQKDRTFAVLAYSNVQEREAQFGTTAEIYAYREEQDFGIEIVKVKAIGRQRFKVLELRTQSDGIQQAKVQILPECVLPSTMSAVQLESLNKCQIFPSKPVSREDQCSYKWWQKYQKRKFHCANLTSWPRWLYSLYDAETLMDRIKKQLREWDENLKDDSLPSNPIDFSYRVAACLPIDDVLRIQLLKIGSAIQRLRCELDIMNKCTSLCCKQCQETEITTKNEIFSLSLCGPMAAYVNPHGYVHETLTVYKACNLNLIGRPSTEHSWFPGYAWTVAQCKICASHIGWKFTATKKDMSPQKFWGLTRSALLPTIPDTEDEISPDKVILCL
Chain of IKZF3 (Q16531 whole entry partner): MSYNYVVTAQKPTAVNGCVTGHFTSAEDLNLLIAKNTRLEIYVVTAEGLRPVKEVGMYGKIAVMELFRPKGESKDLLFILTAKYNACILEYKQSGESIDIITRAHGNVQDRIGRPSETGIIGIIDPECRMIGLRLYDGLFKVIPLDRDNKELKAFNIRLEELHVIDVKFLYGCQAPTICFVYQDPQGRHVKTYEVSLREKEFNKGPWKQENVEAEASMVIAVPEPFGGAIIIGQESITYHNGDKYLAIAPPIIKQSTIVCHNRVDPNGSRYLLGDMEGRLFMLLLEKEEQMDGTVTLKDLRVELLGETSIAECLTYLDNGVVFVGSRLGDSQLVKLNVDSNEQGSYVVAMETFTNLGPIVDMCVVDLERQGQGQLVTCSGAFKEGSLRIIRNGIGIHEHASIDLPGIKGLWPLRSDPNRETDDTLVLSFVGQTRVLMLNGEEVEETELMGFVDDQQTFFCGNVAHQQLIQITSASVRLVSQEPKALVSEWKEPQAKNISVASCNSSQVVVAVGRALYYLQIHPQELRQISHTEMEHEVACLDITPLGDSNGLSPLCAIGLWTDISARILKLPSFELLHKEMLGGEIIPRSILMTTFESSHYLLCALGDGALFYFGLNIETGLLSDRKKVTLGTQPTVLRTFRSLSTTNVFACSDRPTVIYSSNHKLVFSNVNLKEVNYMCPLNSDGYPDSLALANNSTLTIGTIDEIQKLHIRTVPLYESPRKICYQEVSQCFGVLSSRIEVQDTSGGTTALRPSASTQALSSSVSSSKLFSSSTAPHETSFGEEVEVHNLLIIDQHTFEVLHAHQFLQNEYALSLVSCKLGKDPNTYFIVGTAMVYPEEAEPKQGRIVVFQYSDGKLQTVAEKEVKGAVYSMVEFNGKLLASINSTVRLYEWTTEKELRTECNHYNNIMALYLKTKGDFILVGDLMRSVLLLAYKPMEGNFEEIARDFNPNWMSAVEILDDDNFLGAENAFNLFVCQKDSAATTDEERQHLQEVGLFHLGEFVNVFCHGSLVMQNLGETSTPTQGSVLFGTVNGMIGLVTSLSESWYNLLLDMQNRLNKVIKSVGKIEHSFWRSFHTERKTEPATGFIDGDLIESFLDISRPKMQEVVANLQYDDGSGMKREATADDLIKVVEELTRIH
Experimental: as §1, §2, §3, §4, §5, §6, §7

[3] = molecular target: IKZF1 (Homo sapiens (Human), UniProt Q13422+Q96SW2); assay: Western blot, substrate protein expression in hPBMC: IKZF1; assay type: cell-based; details: hPBMC, compound 500 nM, 24 hours, Western blot
Chain of IKZF1 (Q13422 whole entry): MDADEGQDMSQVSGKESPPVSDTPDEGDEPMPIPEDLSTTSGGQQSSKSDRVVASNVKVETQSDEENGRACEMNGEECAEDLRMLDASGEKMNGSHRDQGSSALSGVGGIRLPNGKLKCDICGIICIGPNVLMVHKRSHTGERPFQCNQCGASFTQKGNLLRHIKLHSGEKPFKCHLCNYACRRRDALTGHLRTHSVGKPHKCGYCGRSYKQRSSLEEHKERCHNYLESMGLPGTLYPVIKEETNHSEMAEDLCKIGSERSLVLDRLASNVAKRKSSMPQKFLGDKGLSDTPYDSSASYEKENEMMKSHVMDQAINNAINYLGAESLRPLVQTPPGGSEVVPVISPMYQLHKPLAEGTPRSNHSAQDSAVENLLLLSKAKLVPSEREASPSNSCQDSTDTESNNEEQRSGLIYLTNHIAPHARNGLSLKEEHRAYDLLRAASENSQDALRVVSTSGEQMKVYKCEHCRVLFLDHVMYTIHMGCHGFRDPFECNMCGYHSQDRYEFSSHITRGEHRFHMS
Chain of IKZF1 (Q96SW2 whole entry): as the sequence (Q96SW2 whole entry) above
Chain of IKZF1 (Q16531 whole entry partner): as the sequence (Q16531 whole entry partner) above
Experimental: as §1, §2, §3, §4, §5, §6, §7

[4] = molecular target: human Cereblon WT GST-tagged protein (Homo sapiens (Human), UniProt Q96SW2); assay: CRBN-binding affinity, HTRF (CEREBLON BINDING kit, CISBIO); details: HTRF inhibitory activity
Chain of human Cereblon WT GST-tagged protein (Q96SW2 whole entry): as the sequence (Q96SW2 whole entry) above
Experimental: I. Determination of CRBN-binding affinity of compounds of the present disclosure:
The CEREBLON BINDING kits (specification: 10,000 tests; product number: Catalog #64BDCRBNPEH; CISBIO company) was used to determine the CRBN binding ability of the compounds to be tested through a HTRF method (homogeneous time-resolved fluorescence). The specific methods are as follows: • 1. […] Then, 2.5 μL of human Cereblon WT GST-tagged protein solution was added to each well. Finally, 5 μL of the thoroughly mixed Thalidomide-Red reagent and GST Eu antibody working solution were added to each of the aforementioned wells. […] The blank control wells were sequentially added with 2.5 μL of diluent #9 (1X) solution, 2.5 μL of PROTAC binding buffer, and 5 μL of thoroughly mixed Thalidomide-Red reagent and GST Eu antibody working solution. • 4.
The corresponding CRBN binding inhibition rate was calculated using the following method: […]
OD 620 nmcompound is the absorbance value of each well of the compounds to be tested of the present disclosure at an emission wavelength of 620 nm. […] OD 620 nmcontrol is the absorbance value of the blank control well at an emission wavelength of 620 nm. […] OD 620 nmStd0 is the absorbance value of the solvent control well at an emission wavelength of 620 nm.

Chain of GSPT1 (P15170 whole entry): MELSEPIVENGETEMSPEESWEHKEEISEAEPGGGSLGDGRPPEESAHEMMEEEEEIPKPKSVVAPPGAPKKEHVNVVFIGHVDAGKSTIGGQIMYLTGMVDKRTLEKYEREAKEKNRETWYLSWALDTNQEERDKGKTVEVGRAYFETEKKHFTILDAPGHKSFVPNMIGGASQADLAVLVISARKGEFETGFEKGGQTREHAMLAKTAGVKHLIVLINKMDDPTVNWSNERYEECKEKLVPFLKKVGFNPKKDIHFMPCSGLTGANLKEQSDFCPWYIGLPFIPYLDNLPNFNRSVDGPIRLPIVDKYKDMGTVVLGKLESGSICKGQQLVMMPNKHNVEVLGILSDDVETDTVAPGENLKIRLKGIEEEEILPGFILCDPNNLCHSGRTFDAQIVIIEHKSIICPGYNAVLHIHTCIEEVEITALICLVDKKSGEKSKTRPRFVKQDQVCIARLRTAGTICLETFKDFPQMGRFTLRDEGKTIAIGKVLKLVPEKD
Chain of GSPT1 (Q96SW2 whole entry): as the sequence (Q96SW2 whole entry) above
Chain of GSPT1 (Q16531 whole entry partner): as the sequence (Q16531 whole entry partner) above

SMILES | substrate protein remaining % GSPT1 [1] | substrate protein remaining % IKZF3 [2] | substrate protein remaining % IKZF1 [3] | IC50 [4]
O=C1CCC(N2C(=O)c3ccc(CN4CCN(C5c6cc(Cl)ccc6-c6ccc(Cl)cc65)CC4)cc3C2=O)C(=O)N1 (stereo not shown) [GT-06049, 5-((4-(2,7-dichloro-9H-fluoren-9-yl)piperazin-1-yl)methyl)-2-(2,6-dioxopiperidin-3-yl) isoindoline-1,3-dione] | A (A represents 0% ≤ substrate protein remaining % ≤ 50%) | A (A represents 0% ≤ substrate protein remaining % ≤ 50%) | B (B represents substrate protein remaining % > 50%) | 
O=C1CCC(N2C(=O)c3ccc(C(=O)N4CCC(N(c5ccccc5)c5ccccc5)CC4)cc3C2=O)C(=O)N1 (stereo not shown) [GT-05928, 2-(2,6-dioxopiperidin-3-yl)-5-(4-(diphenylamino)piperidine-1-carbonyl) isoindoline-1,3-dione] | A (A represents 0% ≤ substrate protein remaining % ≤ 50%) | B (B represents substrate protein remaining % > 50%) | B (B represents substrate protein remaining % > 50%) | 
O=C1CCC(N2Cc3cc(CN4CCN(C(c5ccc(OCc6ccccc6)cc5)c5ccc(OCc6ccccc6)cc5)CC4)ccc3C2=O)C(=O)N1 (stereo not shown) [GT-06424, 3-(5-((4-(bis(4-(benzyloxy)phenyl)methyl)piperazin-1-yl)methyl)-1-oxoisoindolin-2-yl)piperidine-2,6-dione] | A (A represents 0% ≤ substrate protein remaining % ≤ 50%) | A (A represents 0% ≤ substrate protein remaining % ≤ 50%) | B (B represents substrate protein remaining % > 50%) | 
O=C1CCC(N2C(=O)c3ccc(CN4CCN(C(c5ccc(F)cc5)c5ccc(F)cc5)CC4)cc3C2=O)C(=O)N1 (stereo not shown) [GT-05726, 5-((4-(bis(4-fluorophenyl)methyl)piperazin-1-yl)methyl)-2-(2,6-dioxopiperidin-3-yl) isoindoline-1,3-dione] | A (A represents 0% ≤ substrate protein remaining % ≤ 50%) | A (A represents 0% ≤ substrate protein remaining % ≤ 50%) | B (B represents substrate protein remaining % > 50%) | 
O=C1CCC(N2Cc3cc(CN4CCN(C(c5ccc(C(F)(F)F)cc5)c5ccc(C(F)(F)F)cc5)CC4)c(F)cc3C2=O)C(=O)N1 (stereo not shown) [GT-06201, 3-(5-((4-(bis(4-(trifluoromethyl)phenyl)methyl)piperazin-1-yl)methyl)-6-fluoro-1-oxoisoindolin-2-yl)piperidine-2,6-dione] | A (A represents 0% ≤ substrate protein remaining % ≤ 50%) | A (A represents 0% ≤ substrate protein remaining % ≤ 50%) | B (B represents substrate protein remaining % > 50%) | 
O=C1CCC(N2Cc3cc(CN4CCN(C(c5cccnc5)c5cccnc5)CC4)c(F)cc3C2=O)C(=O)N1 (stereo not shown) [GT-04386, 3-(5-((4-(di(pyridin-3-yl)methyl)piperazin-1-yl)methyl)-6-fluoro-1-oxoisoindolin-2-yl)piperidine-2,6-dione] | A (A represents 0% ≤ substrate protein remaining % ≤ 50%) | B (B represents substrate protein remaining % > 50%) | B (B represents substrate protein remaining % > 50%) | 
O=C1CCC(N2Cc3cc(C(=O)N4C5CCC4CN(C(c4ccccc4)c4ccccc4)C5)ccc3C2=O)C(=O)N1 (stereo not shown) [GT-05983, 3-(5-(3-benzhydryl-3,8-diazabicyclo[3.2.1]octane-8-carbonyl)-1-oxoisoindolin-2-yl)piperidine-2,6-dione] |  |  |  | 500 to 1000 nM
O=C1CCC(N2Cc3cc(C(=O)N4C[C@@H]5C[C@H]4CN5C(c4ccccc4)c4ccccc4)ccc3C2=O)C(=O)N1 (stereo partly drawn) [GT-05977, 3-(5-((1S,4S)-5-benzhydryl-2,5-diazabicyclo[2.2.1]heptane-2-carbonyl)-1-oxoisoindolin-2-yl)piperidine-2,6-dione] |  |  |  | 500 to 1000 nM
O=C1CCC(N2Cc3cc(CN4CCN(C(c5ccccc5)c5ccccc5)CC4C(F)(F)F)cc(F)c3C2=O)C(=O)N1 (stereo not shown) [GT-06098, 3-(5-((4-benzhydryl-2-(trifluoromethyl)piperazin-1-yl)methyl)-7-fluoro-1-oxoisoindolin-2-yl)piperidine-2,6-dione] |  |  |  | < 500 nM
O=C1CCC(N2Cc3cc(C(=O)N4C5CC4CN(C(c4ccccc4)c4ccccc4)C5)cc(F)c3C2=O)C(=O)N1 (stereo not shown) [GT-05916, 3-(5-(3-benzhydryl-3,6-diazabicyclo[3.1.1]heptane-6-carbonyl)-7-fluoro-1-oxoisoindolin-2-yl)piperidine-2,6-dione] |  |  |  | < 500 nM
O=C1CCC(N2Cc3cc(NC4CCN(C(c5ccccc5)c5ccccc5)CC4)ccc3C2=O)C(=O)N1 (stereo not shown) [GT-05864, 3-(5-((1-benzhydrylpiperidin-4-yl)amino)-1-oxoisoindolin-2-yl)piperidine-2,6-dione] |  |  |  | < 500 nM
O=C1CCC(N2C(=O)c3cc(F)c(N4CC5CCC4CN5C(c4ccccc4)c4ccccc4)cc3C2=O)C(=O)N1 (stereo not shown) [GT-05936, 5-(5-benzhydryl-2,5-diazabicyclo[2.2.2]octan-2-yl)-2-(2,6-dioxopiperidin-3-yl)-6-fluoroisoindoline-1,3-dione] |  |  |  | 500 to 1000 nM
O=C1CCC(N2Cc3cc(C=C4CN(C(c5ccccc5)c5ccccc5)C4)ccc3C2=O)C(=O)N1 (stereo not shown) [GT-05745, 3-(5-((1-benzhydrylazetidin-3-ylidene)methyl)-1-oxoisoindolin-2-yl)piperidine-2,6-dione] |  |  |  | < 500 nM
O=C1CCC(N2Cc3cc(C(=O)N4CCN(C(c5ccccc5)c5ccncc5)CC4)ccc3C2=O)C(=O)N1 (stereo not shown) [GT-06144, 3-(1-oxo-5-(4-(phenyl(pyridin-4-yl)methyl)piperazine-1-carbonyl)isoindolin-2-yl)piperidine-2,6-dione] |  |  |  | 500 to 1000 nM
O=C1CCC(N2Cc3cccc(C(=O)N4CCN(C(c5cccc(F)c5)c5cccc(F)c5)CC4)c3C2=O)C(=O)N1 (stereo not shown) [GT-06150, 3-(7-(4-(bis(3-fluorophenyl)methyl)piperazine-1-carbonyl)-1-oxoisoindolin-2-yl)piperidine-2,6-dione] |  |  |  | 500 to 1000 nM
O=C1CCC(N2Cc3ccc(C(=O)N4CCN(C(c5ccc(Cl)cc5)c5ccc(Cl)cc5)CC4)cc3C2=O)C(=O)N1 (stereo not shown) [GT-05888, 3-(6-(4-(bis(4-chlorophenyl)methyl)piperazine-1-carbonyl)-1-oxoisoindolin-2-yl)piperidine-2,6-dione] |  |  |  | 1000 to 1900 nM
O=C1CCC(N2Cc3c(CN4CCN(C(c5ccccc5)c5cccnc5)CC4)cccc3C2=O)C(=O)N1 (stereo not shown) [GT-06113, 3-(1-oxo-4-((4-(phenyl(pyridin-3-yl)methyl)piperazin-1-yl)methyl)isoindolin-2-yl)piperidine-2,6-dione] |  |  |  | 500 to 1000 nM
O=C1CCC(N2Cc3c(ccc(CN4CCC5(CC4)CCN(C(c4ccccc4)c4ccccc4)CC5)c3F)C2=O)C(=O)N1 (stereo not shown) [GT-06024, 3-(5-((9-benzhydryl-3,9-diazaspiro[5.5]undecan-3-yl)methyl)-4-fluoro-1-oxoisoindolin-2-yl)piperidine-2,6-dione] |  |  |  | 500 to 1000 nM
O=C1CCC(N2Cc3cc(C(=O)N4CCN(C5c6cc(Cl)ccc6-c6ccc(Cl)cc65)CC4)ccc3C2=O)C(=O)N1 (stereo not shown) [GT-06069, 3-(5-(4-(2,7-dichloro-9H-fluoren-9-yl)piperazine-1-carbonyl)-1-oxoisoindolin-2-yl)piperidine-2,6-dione] |  |  |  | 500 to 1000 nM
